Results on one compound are retold here after US20210267981A1, “COMPOUNDS FOR THE TREATMENT OF HIV INFECTION AND OTHER DISEASES CAUSED BY RNA VIRUSES” (UNIVERSIDAD CATOLICA DE VALENCIA "SAN VICENTE MARTIR", priority 2018, published 2021).

Series [1] concerns subdomain IIB of the RRE (IIBh-19ap RNA). As to the kind of experiment: Fluorescence intensity binding to IIBh RNA, with or without competing RNAtCys or LTRd DNA. The arrangement: species or system HIV-1. To be noted: for Kd: IIBh-19ap. The method, then: Depending on the absorption spectra of the compounds, these experiments measured association with IIBh-19ap or IIBh-23fl RNA sequences labeled with 2-aminopurine and fluorescein in residues A19 and U23 of the IIB loop, respectively (Prado et al., Biochem Pharmacol 107 (2016) 14-28), and were carried out in a SPECTRA GEMINI XPS plate reader (Molecular Devices, Sunnyvale, USA) or a Victor X5 plate reader (Perkin Elmer). The IIB RNA concentration in these assays was 100 nM, and the specificity of the interactions with respect to RNA and DNA was evaluated by duplicating the experiments in the presence of a 100-fold molar excess (10 μM) of RNAtCys or LTRd DNA duplex. All the fluorescence intensity experiments were performed at least three times for each compound.
The specificity of the interaction was evaluated by duplicating the experiments in the presence of a 100-fold molar excess of RNAtCys. Likewise, specificity with respect to a double-stranded DNA was evaluated by further performing the experiments with a 100-fold molar excess of a DNA duplex with 26 base pairs (identified as LTRd) containing NF-κB and Sp-1 transcription factor-binding sites (Prado et al., Biochem Pharmacol 107 (2016) 14-28). These two factors bind to the LTR promoter of HIV-1 DNA and are essential for virus replication (Jones et al., AnnuRevBiochem 63 (1994) 717-43).

Series [2] can be described thus: Cell toxicity, CellTiter-Glo assay. To be noted: human; MT-2 cells, CellTiter-Glo; read-out: CC50. The format is cell-based. The source says:
(§1) Anti-HIV-1 Activity and Cell Toxicity.
(§2) The methodology used for performing and analyzing these experiments has been described previously (Prado et al., Biochem Pharmacol 107 (2016) 14-28; Gonzalez-Bulnes et al., Angewandte Chemie-International Edition 52(50) (2013) 13405-13409). Briefly, infectious supernatants were obtained from 293T cells transfected with the pNL4.3-Ren plasmid. MT-2 cells were infected with these supernatants in the presence of the compounds, and the anti-HIV activity was quantified 48 h after infection by determining luciferase activity in the cell lysates. Cell viability was evaluated in cells treated with the same compound concentrations using the CellTiter-Glo assay (Promega). The antiviral activity and cell toxicity results represent the average of at least three independent experiments.
(Cellular ATP, detected with luciferase, serves as a proxy for viable cell number.)

In a further series the test system is MT-2 cells. As to the kind of experiment: Cell toxicity, CellTiter-Glo assay. The following applies: CC50 versus antiviral concentration of the infection experiments. It counts as cell-based.
Excerpt: as §1, §2

For series [3], the system named is IIB-Rev34-50 interaction (subdomain IIB of RRE and FITC-labeled Rev34-50 peptide). Nature of the series: Fluorescence anisotropy (FA) inhibition of IIBh-Rev34-50 interaction. The format is binding, HIV-1. How it is done:
Fluorescence Anisotropy (FA).
These experiments were performed and analyzed as described in the state of the art (Prado et al., Biochem Pharmacol 107 (2016) 14-28; Gonzalez-Bulnes et al., Angewandte Chemie-International Edition 52(50) (2013) 13405-13409; Luedtke et al., Biopolymers 70(1) (2003) 103-19), using 96-well plates and Victor X3 or Victor X5 plate readers (Perkin Elmer, Waltham USA). The assays used 10 nM of frevp and 60 nM of IIBh, and included one positive control (a mixture of IIBh and frevp) and two negative controls (frevp and a mixture of IIBh, frevp, and neomycin B). IIBh-frevp inhibition was only considered to exist when anisotropy reached the expected minimum value at the highest inhibitor concentrations. To ensure that there would not be spectral superposition with FITC, anisotropy data was also collected for each of the compounds. None of them emitted fluorescence under the assay conditions. These experiments were repeated three times for each compound.
(§3) The capacity of the compounds to inhibit IIB-Rev34-50 interaction was evaluated by means of an assay based on the detection, by means of fluorescence anisotropy (FA), of the shift of an FITC-labeled Rev34-50 peptide from its binding site in subdomain IIB of RRE. The capacity of the compounds to inhibit the formation of the RRE-Rev complex was evaluated by means of an electrophoretic mobility shift assay (EMSA).

Another series concerns complete RRE-Rev complex. Nature of the series: Electrophoretic mobility shift assay (EMSA) of complete RRE-Rev complex formation. It counts as binding, HIV-1. The following applies: 78 nM RRE and 1.32 μM Rev, two independent experiments. The method, then:
Electrophoretic Mobility Shift Assays (EMSA).
These experiments used 78 nM of complete RRE, 1.32 μM of complete Rev, and increasing concentrations of each compound, and were carried out and analyzed as described previously in the state of the art (Prado et al., Biochem Pharmacol 107 (2016) 14-28; Fang et al., Cell 155(3) (2013) 594-605). The IC50 values were determined by measuring the area and the intensity of the band corresponding to free RRE. These experiments were performed at least three times for each compound.
as §3
A general note: In EMSA bound probe runs differently from free probe, usually more slowly.

The subject of a further series is HIV-1. As to the kind of experiment: Anti-HIV-1 activity, cell infection assay in MT-2 cells (pNL4.3-Ren supernatants). The format is cell-based. How it is done: Plasmids, Virus, and Cells for Ex Vivo Assays.
Vectors pNL4.3-Luc and pNL4.3-Ren were generated by cloning luciferase and Renilla genes, respectively, in the nef site of HIV-1 proviral plasmid pNL4.3 (Adachi et al., J Virol 59(2) (1986) 284-91), as described previously in the state of the art (Garcia-Perez et al., J Med Virol 79(2) (2007) 127-37). MT-2 cells (Harada et al., Science 229(4713) (1985) 563-6) and 293T cells (American Type Culture Collection, Rockville, USA) were cultured as described previously (Prado et al., Biochem Pharmacol 107 (2016) 14-28).
as §1, §2

For series [4], the system named is complete HIV-1 (NL4.3-luc). As to the kind of experiment: Cell transfection assay, full-length HIV-1 luciferase plasmid (NL4.3-luc) in MT-2 cells. It counts as cell-based. How it is done: Cell Transfection Assays.
MT-2 cells were transfected with plasmids containing a luciferase reporter gene the expression of which was under the control of the complete HIV-1 (NL4.3-luc) or HIV-1 LTR promoter (LTR-Luc). After transfection, the cells were treated with different compound concentrations, and the luciferase activity in the cell lysates was quantified 48 h later (Prado et al., Biochem Pharmacol 107 (2016) 14-28; Gonzalez-Bulnes et al., Angewandte Chemie-International Edition 52(50) (2013) 13405-13409).
In order to identify the target or the set of targets of the tested compounds, an assay based on the transfection of a full-length HIV-1 vector is performed. In this experiment, the entry, reverse transcription, and DNA integration phases of the viral cycle are sidestepped, such that only transcriptional or post-transcriptional events which can be blocked by the inhibitor under study are produced.

A further series concerns IIBh RNA. Nature of the series: NMR spectroscopy of compound binding to IIBh RNA. The following applies: increasing ligand:RNA molar ratios. The arrangement: species or system HIV-1. The method, then: The NMR spectra were acquired in a 500 MHz Bruker Avance spectrometer and analyzed with Topspin 3.5 (Bruker Biospin, Billerica, USA). The interaction between the tested compounds and IIBh RNA samples dissolved at a concentration of 40-60 μM were monitored as described previously in the state of the art (Prado et al., Biochem Pharmacol 107 (2016) 14-28; Gonzalez-Bulnes et al., Angewandte Chemie-International Edition 52(50) (2013) 13405-13409), using one-dimensional and two-dimensional experiments (TOCSY) at increasing ligand:RNA molar ratios.
NMR spectroscopy is then used for identifying the binding sites in the IIBh fork of the compounds. […] This compound altered the signals of residues C9, A19, C20, and U23 comprising the Rev binding site, but also disrupted the signals of the double-helix stems flanking the loop. 2a and 2b required a higher drug:RNA molar ratio to induce changes in the signals of IIBh RNA.

Read-outs that look alike come from different tables or passages of the source.

With `N=c1c(S(=O)(=O)c2ccc(Cl)cc2)cc2c(=O)n3ccccc3nc2n1C1CCCCC1` [Compound 2b], the “specificity of the interaction with IIB” value in series [1] (100-fold molar excess of RNAtCys or LTRd) is listed as “specific”. In addition, the Kd in series [1] (100-fold molar excess of LTRd DNA duplex, read-out: Kd(IIBh + LTRd)) was 10.2 µM; in series [1] (100-fold molar excess of RNAtCys, read-out: Kd(IIBh + tRNA)), 11.4 µM; in series [1] (no competitor, read-out: Kd(IIBh)) it was 12.1 µM. In addition, in series [1] (Kd(IIBh)/Kd(IIBh + LTRd) quotient), the “specificity IIB/DNA” value was determined as 1.19. For the same compound, the “specificity IIB/RNA” value in series [1] (Kd(IIBh)/Kd(IIBh + tRNA) quotient) was determined as 1.06. Besides, the CC50 in series [2] was greater than 100 µM. In the series with MT-2 cells, the “CC50 values fold greater than the antiviral concentrations” value is recorded as greater than 10 fold. The IC50 is 10.3 µM in series [3] (60 nM IIBh and 10 nM frevp, three independent experiments, read-out: IC50 IIB-Rev34-50); 10.3 to 13.7 µM in series [3] (range given for FA and EMSA together for 2a and 2b, read-out: IC50 (FA, IIB-Rev34-50 interaction)); 13.7 µM with complete RRE-Rev complex. Besides, the EC50 with HIV-1 (Human immunodeficiency virus 1, MT2, 48 h, read-out: EC50 of infection, HIV) is 10.2 µM; in the series on HIV-1 (Human immunodeficiency virus 1, MT2, read-out: EC50 cell infection assay), 10.2 µM; in series [4] (Human immunodeficiency virus 1, MT2, 48 h, read-out: EC50 of transfection, HIV) it was greater than 100 µM. The “activity in the transfection assay” value in series [4] (at concentrations lower than 100 μM) is “inactive”. In the series on IIBh RNA, the “changes of IIBh RNA NMR signals” value is recorded as “only induced the widening of signals of residue U23 of the loop at a high drug:RNA molar ratio”.

A word on the Kd: it is the constant that tells how readily two partners part at equilibrium. A word on the CC50: it is the concentration that lowers cell viability or growth by half. A word on the IC50: it is the midpoint of a concentration-inhibition curve. Broadly, the EC50 is the concentration giving half of the maximal effect.
